Experimental data reported in patent publication US10441681B2, “Materials and methods for nerve grafting” (University of Florida Research Foundation, Inc., priority 2001, dated 2019).

System: rat sciatic nerve
Experiment: Axonal regeneration into acellular interpositional nerve grafts (GAP-43 profiles)
Type: in vivo
Description: Adult (180-200 g) female SPRAGUE DAWLEY rats (HARLAN, Indianapolis, Ind.) were used as nerve donors and recipient hosts. Donor rats were anesthetized with halothane and decapitated. Sciatic nerves were exposed through a gluteal muscle-splitting incision and isolated free of underlying fascia. A 15-mm nerve segment was excised rostral to the bifurcation into common peroneal and tibial nerves. The segments were rinsed with cold sterile Ringer's solution, stabilized by pinning the ends to a thin plastic support, and transferred to a cryogenic vial. The vials were submerged in liquid nitrogen for 2 minutes and then transferred to a 37° C. water bath for 2 minutes. This freeze/thaw cycle was repeated, yielding acellular nerve grafts that were then stored in liquid nitrogen. On the day before grafting, the nerve grafts were warmed to room temperature and incubated in 100 μl phosphate buffered saline pH 7.4 (PBS) containing 2 units/ml chondroitinase ABC (SIGMA, St. Louis, Mo.) or in PBS (vehicle) only for 16 hours at 37° C. The grafts were rinsed twice with Ringer's and kept on ice prior to use. The chondroitinase ABC preparation was highly purified and stated by the manufacturer to be essentially free of protease activity.
Twelve rats received bilateral acellular nerve grafts, one chondroitinase-treated and one vehicle-treated graft. Host rats were deeply anesthetized using xylazine (15 mg/kg, i.m.) and ketamine (110 mg/kg, i.p.). The sciatic nerve was exposed and supported by a plastic insert placed between the nerve and underlying tissue. The region of nerve halfway between the sciatic notch and bifurcation was first coated with fibrin glue. Using serrated scissors, a 2.5-mm segment of host nerve was excised and replaced with a freshly trimmed 10-mm acellular nerve graft. The graft was coapted to the host nerve stumps by epineurial neurorrhaphy using one 9-0 ETHILON suture at each end. […] The muscle was closed with 4-0 sutures and the skin with wound clips. After recovery from the anesthetic, animals were returned to standard housing.
Nine rats were terminated at 8 days and four at 4 days after grafting. Animals were deeply anesthetized and decapitated. The graft and 3 mm of proximal and distal host nerve were removed, immersed in 4% paraformaldehyde in 0.1 M phosphate buffer (pH 7.4) overnight at 4° C. The specimens were equilibrated with PBS and immersed in 30% sucrose/phosphate buffer for 2 days at 4° C. […]
The main grafts were sectioned serially on the transverse plane in recorded measure to assess the extent of axonal growth by microscopy. […] GAP-43-positive axon profiles were scored using IMAGE-PRO PLUS software (MEDIA CYBERNETICS, Silver Springs, Md.). […]

chondroitinase ABC
axonal penetration vs vehicle-treated grafts (4-day grafts, 0.3 mm from the host-graft interface, 3 animals): five-fold greater
average number of axons (GAP-43-immunopositive profiles) entering grafts vs control grafts (8-day acellular syngrafts, en bloc treated, n=9): more than three-fold greater
number of axons at the distal ends of grafts vs control (8-day grafts): a similar number of axons
propensity of axons to grow within basal laminae (8-day grafts, GAP-43/laminin double label): unaltered
